Paper PMC10996005, “Identification and Development of Cyclic Peptide Inhibitors of Hypoxia Inducible Factors 1 and 2 That Disrupt Hypoxia-Response Signaling in Cancer Cells” (Journal of the American Chemical Society, 2024)
Where a SMILES comes first, the peptide text is derived from it. [ ]: non-standard residue; d: D form. Phe(4-I) = N[C@@H](Cc1ccc(I)cc1)C(=O)O

Columns and labels:
[1] = tested on: CAIX and VEGF genes in MCF-7 cells; experiment: qPCR of hypoxia-response genes in MCF-7 cells; format: cell-based; conditions: hypoxic MCF-7 cells, 50 μM, vs DMSO-treated hypoxic cells
Description: (§1) The effect of our lead inhibitor on hypoxia-response signaling was measured by qPCR in cancer cell lines. Cells were treated with either 2 μM of an analogue of the HIF-2-specific inhibitor belzutifan, PT2399 (control), or 50 μM of cyclo-CRLII(4-iodo)F, incubated in hypoxia for […], and the levels of the hypoxia-response genes CAIX([41],[42]) and VEGF([43]) were measured by qPCR. We observed a 51% drop in CAIX transcription and a 43% drop in VEGF transcription in hypoxic MCF-7 (breast cancer) cells treated with 50 μM of cyclo-CRLII(4-iodo)F versus hypoxic MCF-7 cells treated with DMSO only (Figure 6e). […] We also observed a 49% drop in CAIX expression in hypoxic HeLa (cervical cancer) cells treated with cyclo-CRLII(4-iodo)F (Figure S9b). […] We observed a 35% drop in HIF-2-driven VEGF transcription in 786-O cells treated with 50 μM of cyclo-CRLII(4-iodo)F compared to a 50% decrease in 786-O cells treated with PT2399. […]
(§2) Realtime PCR (qPCR) Assay
(§3) Cells were plated on 6cm dishes at 80% confluency and incubated overnight under normoxic conditions. The cells were then treated with compound and incubated for 18 hours in hypoxic conditions. After treatment, the cells were washed with PBS and lysed under hypoxic conditions. The total RNA was extracted from the cells using a commercial RNA extraction kit (Fisher Scientific) following the manufacturer's instructions. A commercial reverse transcription kit (Promega) was used to generate cDNA. The MyTaq™ Mix master mix and appropriate primers targeting CAIX and VEGF were used to perform the qPCR reaction using a qPCR machine (Bio-Rad).

VEGF gene in 786-O cells = experiment: qPCR of HIF-2-driven VEGF in 786-O cells; format: cell-based; conditions: 50 μM
Description: as §1, §2
as §3, with “A commercial reverse transcription kit (Promega) was used to generate cDNA. The MyTaq™ Mix master mix and appropriate primers targeting CAIX and VEGF were used to perform the qPCR reaction using a qPCR machine (Bio-Rad).” left out

[2] = tested on: HIF-driven expression of YFP in T-REx-293 reporter cell line; experiment: HRE-YFP reporter assay in hypoxia; format: cell-based, human
Excerpt: Following in vitro characterization and optimization of binding, we next assessed the effect of our cyclic peptides in mammalian cells. A cell line with a stably integrated reporter was constructed, in which the expression of yellow fluorescent protein (YFP) was placed under the control of a HRE. Thus, hypoxia would be expected to increase YFP expression (and subsequent fluorescence) in these cells, whereas treatment with a cell-permeable HIF inhibitor would be expected to reduce this fluorescence signal. A fusion cassette was designed containing the YFP gene preceded by three copies of the HRE sequence. This cassette was stably integrated into T-REx-293 cells as previously described.[12] […] The effect of this compound on the viability of T-Rex-293 was assessed with no effect observed at doses up to 75 μM (Figure S9a). […] It should be noted that the relative activity of each compound in this assay will be a combination of its cell permeability and HIF-inhibiting activity. […] We therefore continued to further characterize the cell activity of the 4-iodo-phenylalanine derivative. […]
Generation of HRE-eYFP integrated cell line
The Flp-In System (Fisher) was used to generate a constitutive expression cell line that expresses eYFP under the control of the VEGF HRE. The coding sequence of the yellow fluorescent protein (eYFP) was cloned downstream of the VEGF HRE sequence in the pcDNA5 plasmid, such that the entire cassette was under the regulation of a Tet-On gene expression system. The plasmid was transfected into a human embryonic kidney cell line (Flp-In™-293) and integrated using the manufacturer’s protocol.
Activity Assessment using Flp-In-HRE-eYFP cell line
The Flp-In-HRE-eYFP cells were plated on 24-well plates at 80% confluency and incubated overnight under normoxic conditions. The cells were then treated with different concentrations of compound and incubated for 18 hours under hypoxic conditions. After treatment, the cells were washed with PBS and lysed to extract the total cellular protein. The cell extract was cold centrifuged for 20 minutes at 14,000 RPM. An equal amount of the supernatant from each treatment was plated on a 96-well plate, and the emission of eYFP was measured using a microplate reader. […]

HIF-2α PAS-B domain = molecular target: T1, HIF-2α PAS-B domain (Homo sapiens, UniProt Q99814); experiment: MST binding to the PAS-B domain of HIF-2α; conditions: MST KD ratio
T1 construct: made in house
T1 sequence (Q99814 240-350 limits assumed): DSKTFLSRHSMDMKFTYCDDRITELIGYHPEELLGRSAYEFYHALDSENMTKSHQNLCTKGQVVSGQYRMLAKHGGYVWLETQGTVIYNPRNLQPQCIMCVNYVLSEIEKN
Description: All reagents were purchased from Fisher Scientific or Sigma Aldrich UK unless specified otherwise.
Restriction enzymes and microbiology reagents were purchased from New England Biolabs Inc., Fisher Scientific (UK) or Promega (UK) and were used as directed by the manufacturer. Primers and oligonucleotides were synthesised by Integrated DNA Technologies (UK). DNA sequencing was carried out by Eurofins MWG Operon (Germany).
Construction of the RTHS and SICLOPPS library, screening, purification of recombinant HIF proteins, and the PLA was conducted as previously described in Miranda et al., J. Am. Chem. Soc., 2013, 135(28); […]
Protein labelling with MST dye
Protein was buffer exchanged from storage buffer into labelling buffer (0.1 M NaHCO3, pH 8.5) using a PD spintrap G-25 column (GE healthcare). The protein concentration was then adjusted to 20 µM.
The commercially sourced MST dye (NanoTemper) was prepared as a 470 µM solution in DMSO, which was then further diluted to 60 µM using labelling buffer. To the protein solution was added an equal volume of dye solution, and the labelling reaction was left for 1 hour in the dark at room temperature.
The labelled protein was separated from unreacted dye by elution through a PD minitrap G-25 column (GE healthcare). Labelled protein was then aliquoted and stored at -80 °C. Extent of labelling was measured by the absorbance obtained using the UV-vis mode on a NanoDrop ND-1000 Spectrophotometer (NanoDrop Technologies, USA).
Labelled protein was thawed on ice and diluted to 50 nM in assay buffer containing 50 mM Tris pH 8.0, 150 mM NaCl, 5% (v/v) glycerol, 1 mM TCEP and 0.05% TWEEN-20. The protein solution was then centrifuged at 12000 rpm for 15 minutes at 4 °C and left on ice. Compounds were prepared and serially diluted in DMSO at 10x assay concentration, before diluting to 2x assay concentration in assay buffer.
The 2x compound solutions were then mixed 1:1 (v/v) with 50 nM labelled protein solution and left to incubate for 1 hour at room temperature. Solutions were then loaded into Monolith NT.115 Premium Capillaries (NanoTemper) and placed in the sample tray. MST experiments were carried out

CC[C@H](C)[C@@H]1NC(=O)[C@H](CC(C)C)NC(=O)[C@H](CCCNC(=N)N)NC(=O)[C@H](CS)NC(=O)[C@H](Cc2ccc(I)cc2)NC(=O)[C@H]([C@@H](C)CC)NC1=O [cyclo-CRLII(4-iodo)F] (cyclo(CRLII[Phe(4-I)]))
drop in CAIX transcription [1]: 51% | drop in VEGF transcription [1]: 43% | drop in HIF-2-driven VEGF transcription (VEGF gene in 786-O cells): 35% | EC50 ([2]; T-REx-293 HRE-YFP reporter, 18 hours, read-out: EC50 for reduction in hypoxia-mediated YFP fluorescence): 30.7 ± 2.1 µM | relative activity among the 9 most potent cyclo-CRLIIF derivatives on YFP expression ([2]; T-Rex-293 HRE-YFP reporter): most active | improvement in KD for HIF-2α PAS-B compared to the parent cyclic peptide (HIF-2α PAS-B domain): 6.5 fold
